# In PubChem BioAssay AID1963958 (Molecular Pharmacology Branch, DTP, NCI, 2024):
# Test system: MDA-MB-231 multicell spheroids, viability
# Assay: Anticancer human tumor MDA-MB-231 cell line growth inhibition [PI3K];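 note: spheroids exposed to agents for seven days before reading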;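 for viability, T/C: percent of vehicle control luminescence with DMSO treated spheroids as 100%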
# Conditions: for IC50: curve of first compound; for viability, T/C: stronger effect = lower value
# Outline: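 Agents were dosed from a top concentration near clinical Cmax (otherwise 10 microM) in half-log decrements, alone or combined with PI3K inhibitors. The spheroids contain tumor cells plus endothelial (HUVEC) and MSC stroma; viability is measured.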
# [1] = second compound 0.00316 µM, first compound 0.0316 µM
# [2] = second compound 0.00316 µM, first compound 0.1 µM
# [3] = second compound 0.00316 µM, first compound 0.316 µM
# [4] = second compound 0.00316 µM, first compound 1 µM
# [5] = second compound 0.00316 µM, first compound 3.16 µM
# [6] = second compound 0.00316 µM, first compound 10 µM
# [7] = second compound 0.01 µM, first compound 0.0316 µM
# [8] = second compound 0.01 µM, first compound 0.1 µM
# [9] = second compound 0.01 µM, first compound 0.316 µM
# [10] = second compound 0.01 µM, first compound 1 µM
# [11] = second compound 0.01 µM, first compound 3.16 µM
# [12] = second compound 0.01 µM, first compound 10 µM
# [13] = second compound 0.0316 µM, first compound 0.0316 µM
# [14] = second compound 0.0316 µM, first compound 0.1 µM
# [15] = second compound 0.0316 µM, first compound 0.316 µM
# [16] = second compound 0.0316 µM, first compound 1 µM
# [17] = second compound 0.0316 µM, first compound 3.16 µM
# [18] = second compound 0.0316 µM, first compound 10 µM
# [19] = second compound 0.1 µM, first compound 0.0316 µM
# [20] = second compound 0.1 µM, first compound 0.1 µM
# [21] = second compound 0.1 µM, first compound 0.316 µM
# [22] = second compound 0.1 µM, first compound 1 µM
# [23] = second compound 0.1 µM, first compound 3.16 µM
# [24] = second compound 0.1 µM, first compound 10 µM
# [25] = second compound 0.316 µM, first compound 0.0316 µM
# [26] = second compound 0.316 µM, first compound 0.1 µM
# [27] = second compound 0.316 µM, first compound 0.316 µM
# [28] = second compound 0.316 µM, first compound 1 µM
# [29] = second compound 0.316 µM, first compound 3.16 µM
# [30] = second compound 0.316 µM, first compound 10 µM
# [31] = second compound 1 µM, first compound 0.0316 µM
# [32] = second compound 1 µM, first compound 0.1 µM
# [33] = second compound 1 µM, first compound 0.316 µM
# [34] = second compound 1 µM, first compound 1 µM
# [35] = second compound 1 µM, first compound 3.16 µM
# [36] = second compound 1 µM, first compound 10 µM
smiles,measurement,setting,value
C=CC(=O)N1CCN(c2nc(=O)n(-c3c(C)ccnc3C(C)C)c3nc(-c4c(O)cccc4F)c(F)cc23)C(C)C1 (stereo not drawn) + CC(Nc1ccc2c(c1)OCCn1cc(N3C(=O)OCC3C(F)F)nc1-2)C(N)=O,IC50,second compound 0.00316 µM,> 10 µM
same,IC50,second compound 0.01 µM,> 10 µM
same,IC50,second compound 0.0316 µM,> 10 µM
same,IC50,second compound 0.1 µM,> 10 µM
same,IC50,second compound 0.316 µM,> 10 µM
same,IC50,second compound 1 µM,8.26 µM
same,"viability, T/C",[1],97.8%
same,"viability, T/C",[2],113%
same,"viability, T/C",[3],117%
same,"viability, T/C",[4],124%
same,"viability, T/C",[5],126%
same,"viability, T/C",[6],111%
same,"viability, T/C",[7],97.5%
same,"viability, T/C",[8],99.1%
same,"viability, T/C",[9],99.3%
same,"viability, T/C",[10],119%
same,"viability, T/C",[11],122%
same,"viability, T/C",[12],106%
same,"viability, T/C",[13],80.3%
same,"viability, T/C",[14],86.1%
same,"viability, T/C",[15],88.3%
same,"viability, T/C",[16],97.8%
same,"viability, T/C",[17],99.2%
same,"viability, T/C",[18],82.1%
same,"viability, T/C",[19],69.8%
same,"viability, T/C",[20],71.2%
same,"viability, T/C",[21],81.6%
same,"viability, T/C",[22],73%
same,"viability, T/C",[23],68.5%
same,"viability, T/C",[24],59.3%
same,"viability, T/C",[25],68.7%
same,"viability, T/C",[26],64.6%
same,"viability, T/C",[27],67.8%
same,"viability, T/C",[28],68.8%
same,"viability, T/C",[29],62.1%
same,"viability, T/C",[30],48%
same,"viability, T/C",[31],59.2%
same,"viability, T/C",[32],57.7%
same,"viability, T/C",[33],62.1%
same,"viability, T/C",[34],60.6%
same,"viability, T/C",[35],58.1%
same,"viability, T/C",[36],40.3%
CCN1CCN(Cc2ccc(Nc3ncc(F)c(-c4cc(F)c5nc(C)n(C(C)C)c5c4)n3)nc2)CC1 + CC(Nc1ccc2c(c1)OCCn1cc(N3C(=O)OCC3C(F)F)nc1-2)C(N)=O,IC50,second compound 0.00316 µM,0.131 µM
same,IC50,second compound 0.01 µM,0.0792 µM
same,IC50,second compound 0.0316 µM,0.0532 µM
same,IC50,second compound 0.1 µM,0.0244 µM
same,IC50,second compound 0.316 µM,0.0214 µM
same,IC50,second compound 1 µM,0.02 µM
same,"viability, T/C","second compound 0.00316 µM, first compound 0.00316 µM",90.8%
same,"viability, T/C","second compound 0.00316 µM, first compound 0.01 µM",103%
same,"viability, T/C",[1],76%
same,"viability, T/C",[2],54.5%
same,"viability, T/C",[3],41.9%
same,"viability, T/C",[4],44.9%
same,"viability, T/C","second compound 0.01 µM, first compound 0.00316 µM",92.7%
same,"viability, T/C","second compound 0.01 µM, first compound 0.01 µM",96.3%
same,"viability, T/C",[7],65.7%
same,"viability, T/C",[8],50.1%
same,"viability, T/C",[9],40.6%
same,"viability, T/C",[10],47%
same,"viability, T/C","second compound 0.0316 µM, first compound 0.00316 µM",80.2%
same,"viability, T/C","second compound 0.0316 µM, first compound 0.01 µM",84.3%
same,"viability, T/C",[13],57.4%
same,"viability, T/C",[14],42.6%
same,"viability, T/C",[15],35%
same,"viability, T/C",[16],45.5%
same,"viability, T/C","second compound 0.1 µM, first compound 0.00316 µM",69.5%
same,"viability, T/C","second compound 0.1 µM, first compound 0.01 µM",70.4%
same,"viability, T/C",[19],44.2%
same,"viability, T/C",[20],37.1%
same,"viability, T/C",[21],33.3%
same,"viability, T/C",[22],43.8%
same,"viability, T/C","second compound 0.316 µM, first compound 0.00316 µM",63.4%
same,"viability, T/C","second compound 0.316 µM, first compound 0.01 µM",62.8%
same,"viability, T/C",[25],43.4%
same,"viability, T/C",[26],36.5%
same,"viability, T/C",[27],35.4%
same,"viability, T/C",[28],43.5%
same,"viability, T/C","second compound 1 µM, first compound 0.00316 µM",60.1%
same,"viability, T/C","second compound 1 µM, first compound 0.01 µM",64.8%
same,"viability, T/C",[31],41.7%
same,"viability, T/C",[32],34.5%
same,"viability, T/C",[33],34.4%
same,"viability, T/C",[34],39.1%
Cn1ncc(Cl)c1-c1cc(C(=O)NC(CN)Cc2cccc(F)c2)sc1Cl (stereo not drawn) + CC(Nc1ccc2c(c1)OCCn1cc(N3C(=O)OCC3C(F)F)nc1-2)C(N)=O,IC50,second compound 0.00316 µM,2.72 µM
same,IC50,second compound 0.01 µM,2.61 µM
same,IC50,second compound 0.0316 µM,1.54 µM
same,IC50,second compound 0.1 µM,1.26 µM
same,IC50,second compound 0.316 µM,1.18 µM
same,IC50,second compound 1 µM,0.665 µM
same,"viability, T/C",[1],95.7%
same,"viability, T/C",[2],94.2%
same,"viability, T/C",[3],91.2%
same,"viability, T/C",[4],73.4%
same,"viability, T/C",[5],46.9%
same,"viability, T/C",[6],25.3%
same,"viability, T/C",[7],91.5%
same,"viability, T/C",[8],95.2%
same,"viability, T/C",[9],80.7%
same,"viability, T/C",[10],70.5%
same,"viability, T/C",[11],45.9%
same,"viability, T/C",[12],22.8%
same,"viability, T/C",[13],76.4%
same,"viability, T/C",[14],75.2%
same,"viability, T/C",[15],70.1%
same,"viability, T/C",[16],58.3%
same,"viability, T/C",[17],36.6%
same,"viability, T/C",[18],24.1%
same,"viability, T/C",[19],71.4%
same,"viability, T/C",[20],68.8%
same,"viability, T/C",[21],62.9%
same,"viability, T/C",[22],55.6%
same,"viability, T/C",[23],34.5%
same,"viability, T/C",[24],22%
same,"viability, T/C",[25],66.4%
same,"viability, T/C",[26],59.7%
same,"viability, T/C",[27],59.7%
same,"viability, T/C",[28],53.4%
same,"viability, T/C",[29],36.8%
same,"viability, T/C",[30],21%
same,"viability, T/C",[31],58.9%
same,"viability, T/C",[32],56.9%
same,"viability, T/C",[33],55.1%
same,"viability, T/C",[34],46.8%
same,"viability, T/C",[35],36.9%
same,"viability, T/C",[36],18.9%
Cn1nccc1Nc1nccc(-c2ccn(C(CO)c3ccc(Cl)c(F)c3)c(=O)c2)n1 (stereo not drawn) + CC(Nc1ccc2c(c1)OCCn1cc(N3C(=O)OCC3C(F)F)nc1-2)C(N)=O,IC50,second compound 0.00316 µM,1.08 µM
same,IC50,second compound 0.01 µM,0.618 µM
same,IC50,second compound 0.0316 µM,0.27 µM
same,IC50,second compound 0.1 µM,0.0888 µM
same,IC50,second compound 0.316 µM,0.0669 µM
same,IC50,second compound 1 µM,< 0.0316 µM
same,"viability, T/C",[1],64.6%
same,"viability, T/C",[2],68.1%
same,"viability, T/C",[3],56.8%
same,"viability, T/C",[4],50.9%
same,"viability, T/C",[5],39.6%
same,"viability, T/C",[6],26.9%
same,"viability, T/C",[7],71.6%
same,"viability, T/C",[8],64.4%
same,"viability, T/C",[9],52%
same,"viability, T/C",[10],46.9%
same,"viability, T/C",[11],39.6%
same,"viability, T/C",[12],23%
same,"viability, T/C",[13],69.2%
same,"viability, T/C",[14],56.4%
same,"viability, T/C",[15],47.3%
same,"viability, T/C",[16],42.2%
same,"viability, T/C",[17],29.4%
same,"viability, T/C",[18],20.4%
same,"viability, T/C",[19],56.4%
same,"viability, T/C",[20],46.6%
same,"viability, T/C",[21],43%
same,"viability, T/C",[22],40.2%
same,"viability, T/C",[23],25.5%
same,"viability, T/C",[24],20.8%
same,"viability, T/C",[25],53.4%
same,"viability, T/C",[26],48.5%
same,"viability, T/C",[27],42.1%
same,"viability, T/C",[28],33.4%
same,"viability, T/C",[29],26.3%
same,"viability, T/C",[30],19%
same,"viability, T/C",[31],51.2%
same,"viability, T/C",[32],42.3%
same,"viability, T/C",[33],38.5%
same,"viability, T/C",[34],36.1%
same,"viability, T/C",[35],26.6%
same,"viability, T/C",[36],16.2%
